Measured values taken from patent EP0090603A2, “Antibacterial compounds” (BEECHAM GROUP PLC, priority 1982, dated 1983).

Columns and labels:
M. suipneumoniae NB12 = assay: MIC against Mycoplasma, in vitro agar dilution; format: cell-based; details: Friis broth solidified with 0.9% agarose, 10^3 to 10^5 C.F.U., 6 days at 37°C
M. suipneumoniae JF 435 = assay: MIC against Mycoplasma, in vitro agar dilution; format: cell-based; details: Friis broth solidified with 0.9% agarose, 10^3 to 10^5 C.F.U., 6 days at 37°C
M. suipneumoniae HK(2) = assay: MIC against Mycoplasma, in vitro agar dilution; format: cell-based; details: Friis broth solidified with 0.9% agarose, 10^3 to 10^5 C.F.U., 6 days at 37°C
M. suipneumoniae Str. 11 = assay: MIC against Mycoplasma, in vitro agar dilution; format: cell-based; details: Friis broth solidified with 0.9% agarose, 10^3 to 10^5 C.F.U., 6 days at 37°C
[1] = system: M. suipneumoniae J2206/183^b; assay: MIC against Mycoplasma, in vitro agar dilution; format: cell-based; details: Friis broth solidified with 0.9% agarose, 10^3 to 10^5 C.F.U., 6 days at 37°C
M. suipneumoniae MS 16 = assay: MIC against Mycoplasma, in vitro agar dilution; format: cell-based; details: Friis broth solidified with 0.9% agarose, 10^3 to 10^5 C.F.U., 6 days at 37°C
[2] = system: M. suipneumoniae PW/C/210; assay: MIC against Mycoplasma, in vitro agar dilution; format: cell-based; details: Friis broth solidified with 0.9% agarose, 10^3 to 10^5 C.F.U., 6 days at 37°C
M. suipneumoniae LABER = assay: MIC against Mycoplasma, in vitro agar dilution; format: cell-based; details: Friis broth solidified with 0.9% agarose, 10^3 to 10^5 C.F.U., 6 days at 37°C
M. suipneumoniae UCD 1 = assay: MIC against Mycoplasma, in vitro agar dilution; format: cell-based; details: Friis broth solidified with 0.9% agarose, 10^3 to 10^5 C.F.U., 6 days at 37°C
M. suipneumoniae TAM 6N = assay: MIC against Mycoplasma, in vitro agar dilution; format: cell-based; details: Friis broth solidified with 0.9% agarose, 10^3 to 10^5 C.F.U., 6 days at 37°C
[3] = system: M. suipneumoniae ATCC 25095; assay: MIC against Mycoplasma, in vitro agar dilution; format: cell-based; details: Friis broth solidified with 0.9% agarose, 10^3 to 10^5 C.F.U., 6 days at 37°C
[4] = system: M. suipneumoniae NCTC 10110; assay: MIC against Mycoplasma, in vitro agar dilution; format: cell-based; details: Friis broth solidified with 0.9% agarose, 10^3 to 10^5 C.F.U., 6 days at 37°C
M. hyorhinis ATCC 23234 = assay: MIC against Mycoplasma, in vitro agar dilution; format: cell-based; details: Friis broth solidified with 0.9% agarose, 10^3 to 10^5 C.F.U., 6 days at 37°C
M. hyorhinis ATCC 25021 = assay: MIC against Mycoplasma, in vitro agar dilution; format: cell-based; details: Friis broth solidified with 0.9% agarose, 10^3 to 10^5 C.F.U., 6 days at 37°C
[5] = system: M. hyosynoviae ATCC 25591; assay: MIC against Mycoplasma, in vitro agar dilution; format: cell-based; details: Friis broth solidified with 0.9% agarose, 10^3 to 10^5 C.F.U., 6 days at 37°C
M. bovis NCTC 10131 = assay: microbe, parasite or virus in culture; format: cell-based; details: Friis broth solidified with 0.9% agarose, 10^3 to 10^5 C.F.U., 6 days at 37°C
[6] = system: M. bovigenitalium ATCC 14173; assay: MIC against Mycoplasma, in vitro agar dilution; format: cell-based; details: Friis broth solidified with 0.9% agarose, 10^3 to 10^5 C.F.U., 6 days at 37°C
M. dispar NCTC 10125 = assay: MIC against Mycoplasma, in vitro agar dilution; format: cell-based; details: Friis broth solidified with 0.9% agarose, 10^3 to 10^5 C.F.U., 6 days at 37°C
M. gallisepticum S6 = assay: MIC against Mycoplasma, in vitro agar dilution; format: cell-based; details: Friis broth solidified with 0.9% agarose, 10^3 to 10^5 C.F.U., 6 days at 37°C
M. pneumoniae ATCC 15492 = assay: MIC against Mycoplasma, in vitro agar dilution; format: cell-based; details: Friis broth solidified with 0.9% agarose, 10^3 to 10^5 C.F.U., 6 days at 37°C
E. coli NCTC 10418 = assay: MIC against Veterinary Bacteria, in vitro agar dilution; details: […], 10^4 organisms, 18 hours at 37°C
Method: (§1) The activity of the compounds of the Examples against various veterinarily important bacteria, was assayed in vitro using two-fold serial dilutions in Diagnostic Sensitivity Test Agar inoculated with 10^4 organisms.

E. coli E1 = assay: as above; details: […], 10^4 organisms, 18 hours at 37°C
Method: as §1

S. dublin S7 = assay: as above; details: […], 10^4 organisms, 18 hours at 37°C
Method: as §1

S. typhimurium S18 = assay: as above; details: […], 10^4 organisms, 18 hours at 37°C
Method: as §1

Bord. bronchiseptica B08 = assay: as above; details: […], 10^4 organisms, 18 hours at 37°C
Method: as §1

Bord. bronchiseptica B09 = assay: as above; details: […], 10^4 organisms, 18 hours at 37°C
Method: as §1

Past. multocida PA1 = assay: as above; details: […], 10^4 organisms, 18 hours at 37°C
Method: as §1

Past. multocida PA2 = assay: as above; details: […], 10^4 organisms, 18 hours at 37°C
Method: as §1

Past. haemolytica PA5 = assay: as above; details: […], 10^4 organisms, 18 hours at 37°C
Method: as §1

[7] = system: Erysipelothrix rhusiopathiae NCTC 8163; assay: as above; details: […], 10^4 organisms, 18 hours at 37°C
Method: as §1

[8] = system: Corynebacterium pyogenes CY1; assay: as above; details: 10^4 organisms, 18 hours at 37°C
Method: as §1

[9] = system: Staph. aureus B4 (pen. resistant); assay: as above; details: […], 10^4 organisms, 18 hours at 37°C
Method: as §1

[10] = system: Staph. aureus 152 (pen. sens); assay: as above; details: […], 10^4 organisms, 18 hours at 37°C
Method: as §1

Staph. aureus Oxford = assay: as above; details: […], 10^4 organisms, 18 hours at 37°C
Method: as §1

[11] = system: Strep. suis (group D) SPS11; assay: as above; details: […], 10^4 organisms, 18 hours at 37°C
Method: as §1

Strep. uberis SPU1 = assay: as above; details: […], 10^4 organisms, 18 hours at 37°C
Method: as §1

Strep. dysgalactiae SPD1 = assay: as above; details: […], 10^4 organisms, 18 hours at 37°C
Method: as §1

Substance: Methyl 9-[4-(5S-(2S,3S-epoxy-5S-hydroxy-4S-methylhexyl-3R,4R-dihydroxytetrahydropyran-2S-yl)-2,3-dimethylbut-2(E)-enoyloxy]nonanoate [Example 6]
- MIC's against M. suipneumoniae NB12 (M. suipneumoniae NB12): 2.5 µg/mL
- MIC's against M. suipneumoniae JF 435 (M. suipneumoniae JF 435): 5.0 µg/mL
- MIC's against M. suipneumoniae HK(2) (M. suipneumoniae HK(2)): 10.0 µg/mL
- MIC's against M. suipneumoniae Str. 11 (M. suipneumoniae Str. 11): 2.5 µg/mL
- MIC's against M. suipneumoniae J2206/183^b [1]: 10.0 µg/mL
- MIC's against M. suipneumoniae MS 16 (M. suipneumoniae MS 16): 2.5 µg/mL
- MIC's against M. suipneumoniae PW/C/210 [2]: 2.5 µg/mL
- MIC's against M. suipneumoniae LABER (M. suipneumoniae LABER): 2.5 µg/mL
- MIC's against M. suipneumoniae UCD 1 (M. suipneumoniae UCD 1): 10.0 µg/mL
- MIC's against M. suipneumoniae TAM 6N (M. suipneumoniae TAM 6N): 10.0 µg/mL
- MIC's against M. suipneumoniae ATCC 25095 [3]: 2.5 µg/mL
- MIC's against M. suipneumoniae NCTC 10110 [4]: 10.0 µg/mL
- MIC's against M. hyorhinis ATCC 23234 (M. hyorhinis ATCC 23234): 1.0 µg/mL
- MIC's against M. hyorhinis ATCC 25021 (M. hyorhinis ATCC 25021): 1.0 µg/mL
- MIC's against M. hyosynoviae ATCC 25591 [5]: 1.0 µg/mL
- MIC's against M. bovis NCTC 10131 (M. bovis NCTC 10131): 0.1 µg/mL
- MIC's against M. bovigenitalium ATCC 14173 [6]: 0.25 µg/mL
- MIC's against M. dispar NCTC 10125 (M. dispar NCTC 10125): 2.5 µg/mL
- MIC's against M. gallisepticum S6 (M. gallisepticum S6): >10.0 µg/mL
- MIC's against M. pneumoniae ATCC 15492 (M. pneumoniae ATCC 15492): 10.0 µg/mL
- MIC's against E. coli NCTC 10418 (E. coli NCTC 10418): >80 µg/mL
- MIC's against E. coli E1 (E. coli E1): >80 µg/mL
- MIC's against S. dublin S7 (S. dublin S7): >80 µg/mL
- MIC's against S. typhimurium S18 (S. typhimurium S18): >80 µg/mL
- MIC's against Bord. bronchiseptica B08 (Bord. bronchiseptica B08): 40 µg/mL
- MIC's against Bord. bronchiseptica B09 (Bord. bronchiseptica B09): 5.0 µg/mL
- MIC's against Past. multocida PA1 (Past. multocida PA1): 5.0 µg/mL
- MIC's against Past. multocida PA2 (Past. multocida PA2): 5.0 µg/mL
- MIC's against Past. haemolytica PA5 (Past. haemolytica PA5): 80 µg/mL
- MIC's against Erysipelothrix rhusiopathiae NCTC 8163 [7]: >80 µg/mL
- MIC's against Corynebacterium pyogenes CY1 [8]: >80 µg/mL
- MIC's against Staph. aureus B4 (pen. resistant) [9]: 1.25 µg/mL
- MIC's against Staph. aureus 152 (pen. sens) [10]: 2.5 µg/mL
- MIC's against Staph. aureus Oxford (Staph. aureus Oxford): 0.625 µg/mL
- MIC's against Strep. suis (group D) SPS11 [11]: 10 µg/mL
- MIC's against Strep. uberis SPU1 (Strep. uberis SPU1): 0.312 µg/mL
- MIC's against Strep. dysgalactiae SPD1 (Strep. dysgalactiae SPD1): 0.625 µg/mL
